15 molecules from patent publication US20180280393A1, “METHODS AND COMPOSITIONS FOR TREATMENT OF METASTATIC AND REFRACTORY CANCERS AND TUMORS” (The Wistar Institute of Anatomy and Biology, priority 2015, published 2018) can be followed below.

The subject of assay [1] is ERK1/2 phosphorylation. The assay is described as follows: TCR ligation of human CD8 T cells, Western blot for ERK1/2 phosphorylation. The assay is classed as cell-based. As to the method:
FIG. 2C is a blot showing FACS-sorted human CD8 T cells that were stimulated by anti-CD3/CD28 crosslinking in the presence of the indicated compounds as described in methods. After 10 min, cells were harvested for Western blotting.
CD8+ cells were sorted from PBMCs and rested overnight in R10. T cells (0.5×10^6 per condition) were stained with OKT3-biotin (BioLegend, 10 μg/ml) for 15 mins on ice, and washed in cold PBS. TCR ligation was performed by adding streptavidin (Promega, 25 μg/ml) and anti-CD28 (Millipore, clone 15E8, 1 μg/ml) in the presence of indicated inhibitors for 10 min at 37° C.
Western blotting—Cells were lysed in RIPA buffer (Thermo Scientific) with protease inhibitors (Complete Protease Inhibitor Cocktail Tablets, Roche) and phosphatase inhibitors (Halt Phosphatase Inhibitor, Thermo Scientific, and Na3VO4, 1 mM) and cleared by centrifugation. Proteins were quantified by BCA assay (Thermo Scientific), diluted in reducing lamelli buffer, denatured by incubation at 95° C., run on mini Protean TGX Ready Gels (Bio-Rad Laboratories), transferred to a nitrocellulose membrane, blocked, and incubated with primary antibodies for p-ERK1/2 (Cell Signaling Technologies, clone D13.14.4E), p-AKT (Cell Signaling Technologies, clone D9E), beta-tubulin (Cell Signaling Technologies, clone 9F3), beta-actin (Sigma, clone AC-15), or IGF-1R (Cell Signaling Technologies, #3027). Immunoreactive bands were developed using horseradish peroxidase-conjugated secondary antibodies (Bio-Rad Laboratories) and ECL substrate (GE Healthcare).
(A western blot detects proteins with antibodies after separation by electrophoresis.)

The subject of assay [2] is osteopontin (SPP1). The assay is described as follows: LC-MS/MS of culture supernatants from Brpkp110 cells. The assay is classed as cell-based, mouse. To be noted: 200 nM, 40 hrs.
Procedure: Supernatants were collected, centrifuged, passed through a 0.22 μm filter, and concentrated by centrifugation in Amicon 3000 MWCO tubes (EMD Millipore). Concentrated sups were run 0.5 cm on a NuPage 12% Gel with MES buffer, extracted, and digested with trypsin.
Liquid chromatography tandem mass spectrometry (LC-MS/MS) analysis was performed by the Wistar Proteomics Facility using a Q Exactive Plus mass spectrometer (Thermo Scientific) coupled with a Nano-ACQUITY UPLC system (Waters). Samples were injected onto a UPLC Symmetry trap column (180 μm i.d.×2 cm packed with 5 μm C18 resin; Waters), and tryptic peptides were separated by RP-HPLC on a BEH C18 nanocapillary analytical column (75 μm i.d.×25 cm, 1.7 μm particle size; Waters) using a gradient formed by solvent A (0.1% formic acid in water) and solvent B (0.1% formic acid in acetonitrile). Peptides were eluted at 200 nL/min for 5-30% B over 225 min, 30-80% B over 5 min, constant 80% B for 10 min before returning to 5% B over 1 min. A 30-min blank gradient was run between sample injections to minimize carryover. Eluted peptides were analyzed by the mass spectrometer set to repetitively scan m/z from 400 to 2000. […]
MS data were analyzed with MaxQuant 1.5.2.8 software^42. […]
Assay [3] deals with human T cells. The assay is described as follows: ConA-induced activation and expansion of human T cells (high-throughput screen). The assay is classed as cell-based. To be noted: for EC50: human T cells activated with ConA for 7 days, N/A = ambiguous curve fits or EC50 greater than the highest concentration tested (25 μM). As to the method:
T cell stimulation—For human T cell proliferation assays, peripheral blood lymphocytes were obtained by leukapheresis/elutriation and Miltenyi bead-purified and K562 cells expressing human CD32 were generated as previously described^41. […] PBMCs were labeled with CELLTRACE Violet stain (Invitrogen) according to the manufacturer's instructions and cocultured with loaded K32 cells at a 10:1 T cells:K32 ratio or activated with ConA (2 μg/ml, Sigma). Proliferation of stimulated T cells was determined 7 days later by FACS and Division Index was calculated using FlowJo software.
(§1) EC50 values were calculated from normalized percent inhibition data using non-linear curve fitting in PRISM software.

For assay [4], the system named is Brpkp110 cells. As to the kind of experiment: Brpkp110 cell proliferation, MTS assay. To be noted: in vitro, 2 days. The assay is classed as cell-based, mouse. As to the method:
(§2) Cell proliferation assays—Cells were plated in 96-well plates. Compounds were added the next morning, and cell proliferation was measured 48 hrs later with the […] 96 MTS assay (Promega) according to the manufacturer's instructions. Molecular screening of compounds on A2780 cells was performed by adding compounds the morning after plating in 384-well plates and measuring proliferation 72 hrs later with resazurin fluorescence. Normalized percent inhibition (NPI) was calculated with respect to fluorescence values obtained with DMSO negative control and doxorubicin (5 μM) positive control as NPI=100%*(DMSO−compound)/(DMSO−doxorubicin). TCR ligation of human CD8 T cells
(In general: Formazan colour is commonly taken as a measure of viable cells.)

Assay [5] deals with human T cells. As to the kind of experiment: Cytokine rescue of human T cell proliferation from MEK inhibition. The assay is classed as cell-based. To be noted: for rescue of T cell proliferation in the presence of the MEK inhibitors: GDC0973 or trametinib. Here is the method:
Proliferation of CD8 T cells after 7 days is shown.
FIG. 2D is a graph showing that human PBMCs were activated as in FIG. 2B with the indicated compounds, BKM120=2 μM.
Reported are percentages of cells that proliferated with GDC0973 relative to vehicle treatment with the same cytokines after 7 days. Stains are not depicted.
T cell stimulation—For human T cell proliferation assays, peripheral blood lymphocytes were obtained by leukapheresis/elutriation and Miltenyi bead-purified and K562 cells expressing human CD32 were generated as previously described^41. K32 were γ-irradiated (100 Gy) and loaded with anti-CD3 (500 ng/ml, clone OKT3; eBioscience) plus anti-CD28 (500 ng/ml, clone 15E8; EMD Millipore) antibodies at room temperature for 10 minutes. PBMCs were labeled with CELLTRACE Violet stain (Invitrogen) according to the manufacturer's instructions and cocultured with loaded K32 cells at a 10:1 T cells:K32 ratio or activated with ConA (2 μg/ml, Sigma). Proliferation of stimulated T cells was determined 7 days later by FACS and Division Index was calculated using FlowJo software.

In assay [6] the test system is A2780 ovarian cancer cells. As to the kind of experiment: Molecular screening of compounds on A2780 cell proliferation (resazurin fluorescence). To be noted: for EC50: A2780 cells cultured 3 days, N/A = ambiguous curve fits or EC50 greater than the highest concentration tested (25 μM), read-out: EC5 - A2780 ovarian cancer cells. The assay is classed as cell-based, human. As to the method: as §2, §1

Assay [7] has as its system human T cells. The assay is described as follows: aAPC (anti-CD3/anti-CD28)-induced human T cell proliferation, CELLTRACE
The assay is classed as cell-based. The settings on record: 7 days. As to the method:
Four plots show proliferation of CD8 cells after 7 days is shown. […] Proliferation of CD8 cells after 7 days is shown. T cell stimulation-For human T cell proliferation assays, peripheral blood lymphocytes were obtained by leukapheresis/elutriation and Miltenyi bead-purified and K562 cells expressing human CD32 were generated as previously described^41. […] were γ-irradiated (100 Gy) and loaded with anti-CD3 (500 ng/ml, clone OKT3; eBioscience) plus anti-CD28 (500 ng/ml, clone 15E8; EMD Millipore) antibodies at room temperature for 10 minutes. PBMCs were labeled with CELLTRACE Violet stain (Invitrogen) according to the manufacturer's instructions and cocultured with loaded […] cells at a 10:1 T cells:[…] ratio or activated with ConA (2 μg/ml, Sigma). Proliferation of stimulated T cells was determined 7 days later by FACS and Division Index was calculated using FlowJo software.

Assay [8] concerns MCF-7 tumor cells. The assay is described as follows: MCF-7 cell proliferation, MTS assay. The assay is classed as cell-based, human. The settings on record: 2 days. As to the method: Representative results from one of two independent experiments.
as §2

Read-outs that look alike come from different tables or passages of the source. Some results are limits rather than exact numbers.

With `CCCCCCCCCCCCCC(=O)O[C@@H]1[C@@H](C)[C@@]2(O)[C@@H](C=C(CO)C[C@]3(O)C(=O)C(C)=C[C@@H]23)[C@@H]2C(C)(C)[C@]12OC(C)=O` [PMA, phorbol-12-myristate-13-acetate], the “ERK phosphorylation under PI3K inhibition” value in assay [1] (without fully restoring AKT phosphorylation) is “completely overcomes the suppressive effect”.

Turning to `CC(=O)Nc1cccc(-n2c(=O)n(C3CC3)c(=O)c3c(Nc4ccc(I)cc4F)n(C)c(=O)c(C)c32)c1` [trametinib], the “decrease of osteopontin (SPP1) in Brpkp110 supernatants” value in assay [2] is listed as greater than 18 fold. Moreover, the EC50 in assay [3] (T-cell, 168 h) is 0.000337 µM. Besides, the “growth compared to vehicle” value in assay [4] is 70%.

“IL-21: cytokine tested for rescue of T cell expansion from MEK inhibition”: in assay [5], the “rescue of T cell proliferation in the presence of the MEK inhibitors” value (from here on “rescue … of the MEK inhibitors”) was “no effect”.

For the molecule `O=C(c1ccc(F)c(F)c1Nc1ccc(I)cc1F)N1CC(O)([C@@H]2CCCCN2)C1` [GDC0973], the EC50 was found to be 9.04 µM in assay [6] (Homo sapiens, 72 h) and 0.00435 µM in assay [3] (T-cell, 168 h). Also, in assay [7], the “proliferation of human T cells in response to aAPC coated with agonistic CD3 and CD28 antibodies” value (“proliferation of human T cells” below) is recorded as “restricted the proliferation”.

For `O=c1cc(N2CCOCC2)oc2c(-c3ccccc3)cccc12` [LY294002], the EC50 in assay [6] (Homo sapiens, 72 h) worked out at 17.2 µM; in assay [3] (T-cell, 168 h), 2.69 µM.

As for `Cc1c(C(=O)Nc2ccc(N3C[C@@H](C)O[C@@H](C)C3)nc2)cccc1-c1ccc(OC(F)(F)F)cc1` [LDE225], the EC50 amounted to 8.48 µM in assay [6] (Homo sapiens, 72 h) and 3.57 µM in assay [3] (T-cell, 168 h).

On to `Nc1cc(C(F)(F)F)c(-c2cc(N3CCOCC3)nc(N3CCOCC3)n2)cn1` [BKM120], for which the EC50 is 11.5 µM in assay [6] (Homo sapiens, 72 h) and 0.239 µM in assay [3] (T-cell, 168 h). Besides, the “proliferation of human T cells” value in assay [7] is recorded as “restricted the proliferation”.

In the case of `COc1ccc(C2=N[C@@H](c3ccc(Cl)cc3)[C@@H](c3ccc(Cl)cc3)N2C(=O)N2CCNC(=O)C2)c(OC(C)C)c1` [nutlin-3a], the EC50 in assay [6] was 16.8 µM; in assay [3], 1.13 µM.

Turning to `Cc1cn(-c2cc(NC(=O)c3ccc(C)c(Nc4nccc(-c5cccnc5)n4)c3)cc(C(F)(F)F)c2)cn1` [AMN107], the EC50 in assay [6] (Homo sapiens, 72 h) stood at 19.1 µM; in assay [3] (T-cell, 168 h) it was 2.48 µM.

Consider `Cn1c(Nc2ccc(C(F)(F)F)cc2)nc2cc(Oc3ccnc(-c4ncc(C(F)(F)F)[nH]4)c3)ccc21` [RAF265], for which the EC50 worked out at 5.63 µM in assay [6] (Homo sapiens, 72 h) and 0.128 µM in assay [3] (T-cell, 168 h).

With `C[C@]1(O)C[C@@H](c2nc(-c3ccc4ccc(-c5ccccc5)nc4c3)c3c(N)nccn32)C1` [OSI906], the “tumor cell proliferation of MCF-7 cells” value in assay [8] was “a reduction in tumor cell proliferation at concentrations that did not affect T cells”. In addition, in assay [6] (except at a high concentration), the “activity on A2780 cells” value is on record as “did not show any activity”. In assay [7], the “proliferation of human T cells” value is given as “did not impact”. Further, the “activity on T cells” value in assay [3] (except at a high concentration) is listed as “did not show any activity”.

Consider “IL-15: recombinant human IL-15 (Novoprotein), proliferative cytokine”, for which the “rescue of the defect in ERK phosphorylation in the presence of BKM120” value in assay [1] (pan-PI3K inhibitor BKM120 present) is listed as “unable to rescue”. For the same molecule, the “rescue of early TCR-induced MAPK signaling (ERK1/2 phosphorylation) from MEK inhibition” value in assay [1] (within 10 minutes) is “can rescue”. For the same molecule, the “rescue … of the MEK inhibitors” value in assay [5] is reported as “able to rescue T cell proliferation”. For the same molecule, the “rescue of T cell expansion when PI3K and MEK inhibitors were combined” value in assay [5] (trametinib + BKM120) is reported as “could not be fully rescued”.

With `COc1cccc2cc(-c3nc([C@H]4CC[C@H](C(=O)O)CC4)n4ncnc(N)c34)[nH]c12` [OSI027], the EC50 in assay [6] (Homo sapiens, 72 h) was 5.88 µM; in assay [3] (T-cell, 168 h), 0.311 µM.

B1: IL-7: recombinant mouse IL-7 (Peprotech) (protein, UniProt P10168 26-154, looked up)
Interleukin-7: ECHIKDKEGKAYESVLMISIDELDKMTGTDSNCPNNEPNFFRKHVCDDTKEAAFLNRAARKLKQFLKMNISEEFNVHLLTVSQGTQTLVNCTSKEEKNVKEQKKNDACFLKRLLREIKTCWNKILKGSI
In the case of B1, the “rescue … of the MEK inhibitors” value in assay [5] is on record as “able to rescue T cell proliferation”.

B2: IL-27: cytokine tested for rescue of T cell expansion from MEK inhibition (protein, UniProt Q8NEV9 29-243; Q14213 21-229, looked up)
Interleukin-27 subunit alpha: FPRPPGRPQLSLQELRREFTVSLHLARKLLSEVRGQAHRFAESHLPGVNLYLLPLGEQLPDVSLTFQAWRRLSDPERLCFISTTLQPFHALLGGLGTQGRWTNMERMQLWAMRLDLRDLQRHLRFQVLAAGFNLPEEEEEEEEEEEEERKGLLPGALGSALQGPAQVSWPQLLSTYRLLHSLELVLSRAVRELLLLSKAGHSVWPLGFPTLSPQP
Interleukin-27 subunit beta: RKGPPAALTLPRVQCRASRYPIAVDCSWTLPPAPNSTSPVSFIATYRLGMAARGHSWPCLQQTPTSTSCTITDVQLFSMAPYVLNVTAVHPWGSSSSFVPFITEHIIKPDPPEGVRLSPLAERQLQVQWEPPGSWPFPEIFSLKYWIRYKRQGAARFHRVGPIEATSFILRAVRPRARYYVQVAAQDLTDYGELSDWSLPATATMSLGK
B2: in assay [5], the “rescue … of the MEK inhibitors” value is reported as “no effect”.
